Measured values reported in patent publication US20250271426A1, “REDUCTION OF BITTER TASTE OF ACTIVE PHARMACEUTICAL INGREDIENTS AND RELATED ASSAYS AND SCREENING METHODS” (Firmenich Incorporated, priority 2022, published 2025).

Legend:
Assay in all cases: FLIPR calcium assay, cells with promiscuous G protein transfected with bitter receptor cDNA
Assay type in all cases: cell-based
Conditions in all cases: responsive if cellular response of >10% over baseline, Fluo4-AM
[1] = target: T1, T2R receptor SEQ ID NO: 3 (S3) (Homo sapiens, UniProt Q9NYW0, T156M)
T1 construct: expressed in transfected cells; host or cells: cells expressing a promiscuous G protein (e.g., G16g44)
T1 sequence (Q9NYW0 1-307 T156M): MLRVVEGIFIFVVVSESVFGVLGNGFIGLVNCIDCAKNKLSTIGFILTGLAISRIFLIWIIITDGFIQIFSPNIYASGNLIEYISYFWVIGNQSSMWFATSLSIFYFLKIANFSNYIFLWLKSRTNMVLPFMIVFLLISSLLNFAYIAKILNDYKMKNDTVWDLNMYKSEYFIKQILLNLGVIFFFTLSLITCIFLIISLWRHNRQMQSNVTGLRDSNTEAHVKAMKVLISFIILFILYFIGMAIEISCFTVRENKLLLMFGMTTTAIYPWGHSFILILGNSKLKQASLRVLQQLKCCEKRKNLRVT
Procedure, shortened: (§1)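 Promiscuous G protein (e.g., G16g44)-expressing cells transfected with one bitter receptor cDNA each, 28 h incubation, then Fluo4-AM loading for 60 min and wash. Agonist-evoked intracellular calcium fluorescence recorded on FLIPR; receptor deemed responsive when response exceeded 10% over baseline.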

[2] = target: T2, T2R receptor SEQ ID NO: 6 (S6) (Homo sapiens, UniProt P59540)
T2 construct: expressed in transfected cells; host or cells: cells expressing a promiscuous G protein (e.g., G16g44)
T2 sequence (P59540 1-309): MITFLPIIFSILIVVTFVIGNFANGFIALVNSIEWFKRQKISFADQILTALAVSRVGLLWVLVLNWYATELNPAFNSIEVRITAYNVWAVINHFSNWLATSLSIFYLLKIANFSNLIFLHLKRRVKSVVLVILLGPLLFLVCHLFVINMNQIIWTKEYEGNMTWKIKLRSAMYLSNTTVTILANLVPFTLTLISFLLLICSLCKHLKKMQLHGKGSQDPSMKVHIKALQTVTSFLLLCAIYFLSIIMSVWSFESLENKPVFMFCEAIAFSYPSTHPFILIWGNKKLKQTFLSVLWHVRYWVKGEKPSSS
Procedure, shortened: as §1

[3] = target: T3, T2R receptor SEQ ID NO: 5 (S5) (Homo sapiens, UniProt P59534)
T3 construct: expressed in transfected cells; host or cells: cells expressing a promiscuous G protein (e.g., G16g44)
T3 sequence (P59534 18-338): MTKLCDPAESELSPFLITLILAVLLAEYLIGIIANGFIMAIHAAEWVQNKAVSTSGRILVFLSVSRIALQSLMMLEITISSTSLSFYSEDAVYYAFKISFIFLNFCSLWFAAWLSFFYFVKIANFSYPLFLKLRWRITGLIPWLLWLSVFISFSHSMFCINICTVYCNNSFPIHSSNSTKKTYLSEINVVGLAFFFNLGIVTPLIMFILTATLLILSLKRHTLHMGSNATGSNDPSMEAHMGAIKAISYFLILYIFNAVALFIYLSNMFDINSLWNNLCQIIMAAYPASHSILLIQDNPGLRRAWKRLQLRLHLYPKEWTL
Procedure, shortened: as §1

[4] = target: T4, T2R receptor SEQ ID NO: 2 (S2) (Homo sapiens, UniProt Q9NYW2)
T4 construct: expressed in transfected cells; host or cells: cells expressing a promiscuous G protein (e.g., G16g44)
T4 sequence (Q9NYW2 1-309): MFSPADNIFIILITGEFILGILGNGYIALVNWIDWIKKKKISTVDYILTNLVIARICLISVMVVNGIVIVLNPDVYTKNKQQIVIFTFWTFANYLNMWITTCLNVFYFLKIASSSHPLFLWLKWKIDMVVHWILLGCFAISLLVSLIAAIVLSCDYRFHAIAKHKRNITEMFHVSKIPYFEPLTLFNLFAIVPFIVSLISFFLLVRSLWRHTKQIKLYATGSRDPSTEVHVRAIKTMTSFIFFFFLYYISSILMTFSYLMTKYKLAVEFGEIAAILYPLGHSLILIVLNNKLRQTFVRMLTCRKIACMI
Procedure, shortened: as §1

[5] = target: T5, T2R receptor SEQ ID NO: 1 (S1) (Homo sapiens, UniProt Q9NYW7)
T5 construct: expressed in transfected cells; host or cells: cells expressing a promiscuous G protein (e.g., G16g44)
T5 sequence (Q9NYW7 1-299): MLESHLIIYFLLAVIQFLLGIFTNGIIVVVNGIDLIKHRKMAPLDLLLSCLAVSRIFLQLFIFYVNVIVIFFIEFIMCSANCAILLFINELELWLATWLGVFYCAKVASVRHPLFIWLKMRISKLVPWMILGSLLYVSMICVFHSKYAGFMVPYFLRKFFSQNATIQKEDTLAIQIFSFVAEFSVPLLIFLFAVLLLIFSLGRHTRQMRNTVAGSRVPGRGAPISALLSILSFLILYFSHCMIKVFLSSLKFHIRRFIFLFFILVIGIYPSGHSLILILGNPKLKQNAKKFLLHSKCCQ
Procedure, shortened: as §1

[6] = target: T6, T2R receptor SEQ ID NO: 4 (S4) (Homo sapiens, UniProt Q9NYV8)
T6 construct: expressed in transfected cells; host or cells: cells expressing a promiscuous G protein (e.g., G16g44)
T6 sequence (Q9NYV8 1-317): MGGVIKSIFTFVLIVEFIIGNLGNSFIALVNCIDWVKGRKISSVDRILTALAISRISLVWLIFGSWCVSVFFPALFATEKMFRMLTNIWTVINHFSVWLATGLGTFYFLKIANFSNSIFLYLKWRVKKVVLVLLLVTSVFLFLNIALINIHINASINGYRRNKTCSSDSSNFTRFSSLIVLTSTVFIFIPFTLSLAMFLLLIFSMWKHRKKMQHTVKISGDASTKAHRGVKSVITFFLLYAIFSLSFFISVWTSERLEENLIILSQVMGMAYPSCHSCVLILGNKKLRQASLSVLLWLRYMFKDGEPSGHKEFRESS
Procedure, shortened: as §1

Row | SMILES | S3 positive response of T2R receptor to API [1] | S6 positive response of T2R receptor to API [2] | S5 positive response of T2R receptor to API [3] | S2 positive response of T2R receptor to API [4] | S1 positive response of T2R receptor to API [5] | S4 positive response of T2R receptor to API [6]
1 | CN1[C@@H]2CC[C@H]1C[C@@H](OC(=O)C(CO)c1ccccc1)C2 (stereo partly drawn) [Atropine] | + (a “+” to indicate whether a particular T2R receptor showed a positive response to a particular API) | + (a “+” to indicate whether a particular T2R receptor showed a positive response to a particular API) | + (a “+” to indicate whether a particular T2R receptor showed a positive response to a particular API) | + (a “+” to indicate whether a particular T2R receptor showed a positive response to a particular API) |  | 
2 | CCN[C@H]1CN(CCCOC)S(=O)(=O)c2sc(S(N)(=O)=O)cc21 [Brinzolamide] | + (a “+” to indicate whether a particular T2R receptor showed a positive response to a particular API) | + (a “+” to indicate whether a particular T2R receptor showed a positive response to a particular API) |  | + (a “+” to indicate whether a particular T2R receptor showed a positive response to a particular API) | + (a “+” to indicate whether a particular T2R receptor showed a positive response to a particular API) | 
3 | C[C@H]1O[C@@H](O[C@H]2[C@@H](O)C[C@H](O[C@H]3[C@@H](O)C[C@H](O[C@H]4CC[C@@]5(C)[C@H](CC[C@@H]6[C@@H]5C[C@@H](O)[C@]5(C)[C@@H](C7=CC(=O)OC7)CC[C@]65O)C4)O[C@@H]3C)O[C@@H]2C)C[C@H](O)[C@@H]1O [Digoxin] | + (a “+” to indicate whether a particular T2R receptor showed a positive response to a particular API) | + (a “+” to indicate whether a particular T2R receptor showed a positive response to a particular API) |  | + (a “+” to indicate whether a particular T2R receptor showed a positive response to a particular API) |  | + (a “+” to indicate whether a particular T2R receptor showed a positive response to a particular API)
4 | COc1ccc([C@@H]2Sc3ccccc3N(CCN(C)C)C(=O)[C@@H]2OC(C)=O)cc1 [Diltiazem] | + (a “+” to indicate whether a particular T2R receptor showed a positive response to a particular API) | + (a “+” to indicate whether a particular T2R receptor showed a positive response to a particular API) |  | + (a “+” to indicate whether a particular T2R receptor showed a positive response to a particular API) | + (a “+” to indicate whether a particular T2R receptor showed a positive response to a particular API) | + (a “+” to indicate whether a particular T2R receptor showed a positive response to a particular API)
5 | OC(CCCN1CCCCC1)(c1ccccc1)c1ccccc1 [Diphenidol] | + (a “+” to indicate whether a particular T2R receptor showed a positive response to a particular API) | + (a “+” to indicate whether a particular T2R receptor showed a positive response to a particular API) | + (a “+” to indicate whether a particular T2R receptor showed a positive response to a particular API) |  | + (a “+” to indicate whether a particular T2R receptor showed a positive response to a particular API) | + (a “+” to indicate whether a particular T2R receptor showed a positive response to a particular API)
6 | CCCCC(CC)COC(=O)CC(C(=O)OCC(CC)CCCC)S(=O)(=O)O (stereo not drawn) [Docusate] |  |  |  | + (a “+” to indicate whether a particular T2R receptor showed a positive response to a particular API) | + (a “+” to indicate whether a particular T2R receptor showed a positive response to a particular API) | + (a “+” to indicate whether a particular T2R receptor showed a positive response to a particular API)
7 | CCN[C@H]1C[C@H](C)S(=O)(=O)c2sc(S(N)(=O)=O)cc21 [Dorzolamide] | + (a “+” to indicate whether a particular T2R receptor showed a positive response to a particular API) | + (a “+” to indicate whether a particular T2R receptor showed a positive response to a particular API) |  | + (a “+” to indicate whether a particular T2R receptor showed a positive response to a particular API) | + (a “+” to indicate whether a particular T2R receptor showed a positive response to a particular API) | 
8 | COc1ccc2nc([S@@+]([O-])Cc3ncc(C)c(OC)c3C)[nH]c2c1 [Esomeprazole] | + (a “+” to indicate whether a particular T2R receptor showed a positive response to a particular API) | + (a “+” to indicate whether a particular T2R receptor showed a positive response to a particular API) |  | + (a “+” to indicate whether a particular T2R receptor showed a positive response to a particular API) |  | + (a “+” to indicate whether a particular T2R receptor showed a positive response to a particular API)
9 | NCC1(CC(=O)O)CCCCC1 [Gabapentin] | + (a “+” to indicate whether a particular T2R receptor showed a positive response to a particular API) |  |  | + (a “+” to indicate whether a particular T2R receptor showed a positive response to a particular API) |  | 
10 | CCn1cc(C(=O)O)c(=O)c2cc(F)c(N3CCNC(C)C3)c(F)c21 (stereo not drawn) [Lomefloxacin] |  | + (a “+” to indicate whether a particular T2R receptor showed a positive response to a particular API) |  | + (a “+” to indicate whether a particular T2R receptor showed a positive response to a particular API) |  | 
11 | C[C@]12C=CC(=O)C=C1CC[C@@H]1[C@@H]2C(=O)C[C@@]2(C)[C@H]1CC[C@]2(O)C(=O)CO [Prednisone] | + (a “+” to indicate whether a particular T2R receptor showed a positive response to a particular API) | + (a “+” to indicate whether a particular T2R receptor showed a positive response to a particular API) |  | + (a “+” to indicate whether a particular T2R receptor showed a positive response to a particular API) | + (a “+” to indicate whether a particular T2R receptor showed a positive response to a particular API) | + (a “+” to indicate whether a particular T2R receptor showed a positive response to a particular API)
